Each structure is given as a SMILES string. ± gives the expanded uncertainty stated by the source.

The conditions of data set [1]: 101.33 kPa, Liquid.
Data set [2] is described as follows: wn = mass fraction of the nth substance listed. The settings on record: 101 kPa, Liquid; for viscosity: Capillary tube (Ostwald / Ubbelohde) method, w1 = 0.5; for mass density: w1 = 0.3.

By mass density is commonly meant the mass of a sample divided by its volume. With `CC(C)(N)CO` [2-amino-2-methylpropan-1-ol], the mass density in data set [1] (313.15 K) is reported as 917.2 ± 0.6 kg/m3; in data set [1] (323.15 K), 909.2 ± 0.6 kg/m3; in data set [1] (333.15 K), 900.7 ± 0.6 kg/m3.

Regarding `CN(CCO)CCO` [N-methyldiethanolamine], the mass density in data set [1] (313.15 K) is recorded as 1025 ± 0.6 kg/m3; in data set [1] (323.15 K) it was 1017.4 ± 0.6 kg/m3; in data set [1] (333.15 K) it was 1009.6 ± 0.6 kg/m3.

The viscosity is the resistance of a fluid to flow. For the molecule `CN(CCO)CCO` [N-methyldiethanolamine] + O, the viscosity in data set [2] (303.15 K) worked out at 7.39 ± 0.07 mPa·s; in data set [2] (313.15 K), 5.08 ± 0.05 mPa·s; in data set [2] (323.15 K) it was 3.62 ± 0.03 mPa·s; in data set [2] (333.15 K) it was 2.72 ± 0.03 mPa·s. In addition, the mass density in data set [2] (313.15 K) worked out at 1017.1 ± 0.6 kg/m3; in data set [2] (323.15 K), 1011.5 ± 0.6 kg/m3; in data set [2] (333.15 K) it was 1004.1 ± 0.6 kg/m3.

In the case of `OCCNCCO` [diethanolamine], the figures for the mass density in data set [1] (313.15 K), in data set [1] (323.15 K) and in data set [1] (333.15 K) were 1084.7 ± 0.3 kg/m3, 1077.4 ± 0.3 kg/m3 and 1070.3 ± 0.3 kg/m3, respectively.

For the molecule `OCCNCCO` [diethanolamine] + O, the mass density stood at 1026 ± 0.5 kg/m3 in data set [2] (313.15 K), 1021.3 ± 0.5 kg/m3 in data set [2] (323.15 K) and 1014.4 ± 0.4 kg/m3 in data set [2] (333.15 K).
